Measured values from ChEMBL document CHEMBL4765444, “Chimera induced protein degradation: PROTACs and beyond” (Eur J Med Chem, 2020).

Biological target: Protein cereblon/Tyrosine-protein kinase ABL1/Breakpoint cluster region protein (Homo sapiens) (UniProt P00519+P11274+Q96SW2)
Test: Induction of CRBN-mediated BCR-ABL degradation in human K562 cells at 1 uM incubated for 24 hrs by Western blot analysis relative to control
Format: cell-based
Conditions: not given

Chain of Protein cereblon/Tyrosine-protein kinase ABL1/Breakpoint cluster region protein (Homo sapiens) (P00519 whole entry, looked up): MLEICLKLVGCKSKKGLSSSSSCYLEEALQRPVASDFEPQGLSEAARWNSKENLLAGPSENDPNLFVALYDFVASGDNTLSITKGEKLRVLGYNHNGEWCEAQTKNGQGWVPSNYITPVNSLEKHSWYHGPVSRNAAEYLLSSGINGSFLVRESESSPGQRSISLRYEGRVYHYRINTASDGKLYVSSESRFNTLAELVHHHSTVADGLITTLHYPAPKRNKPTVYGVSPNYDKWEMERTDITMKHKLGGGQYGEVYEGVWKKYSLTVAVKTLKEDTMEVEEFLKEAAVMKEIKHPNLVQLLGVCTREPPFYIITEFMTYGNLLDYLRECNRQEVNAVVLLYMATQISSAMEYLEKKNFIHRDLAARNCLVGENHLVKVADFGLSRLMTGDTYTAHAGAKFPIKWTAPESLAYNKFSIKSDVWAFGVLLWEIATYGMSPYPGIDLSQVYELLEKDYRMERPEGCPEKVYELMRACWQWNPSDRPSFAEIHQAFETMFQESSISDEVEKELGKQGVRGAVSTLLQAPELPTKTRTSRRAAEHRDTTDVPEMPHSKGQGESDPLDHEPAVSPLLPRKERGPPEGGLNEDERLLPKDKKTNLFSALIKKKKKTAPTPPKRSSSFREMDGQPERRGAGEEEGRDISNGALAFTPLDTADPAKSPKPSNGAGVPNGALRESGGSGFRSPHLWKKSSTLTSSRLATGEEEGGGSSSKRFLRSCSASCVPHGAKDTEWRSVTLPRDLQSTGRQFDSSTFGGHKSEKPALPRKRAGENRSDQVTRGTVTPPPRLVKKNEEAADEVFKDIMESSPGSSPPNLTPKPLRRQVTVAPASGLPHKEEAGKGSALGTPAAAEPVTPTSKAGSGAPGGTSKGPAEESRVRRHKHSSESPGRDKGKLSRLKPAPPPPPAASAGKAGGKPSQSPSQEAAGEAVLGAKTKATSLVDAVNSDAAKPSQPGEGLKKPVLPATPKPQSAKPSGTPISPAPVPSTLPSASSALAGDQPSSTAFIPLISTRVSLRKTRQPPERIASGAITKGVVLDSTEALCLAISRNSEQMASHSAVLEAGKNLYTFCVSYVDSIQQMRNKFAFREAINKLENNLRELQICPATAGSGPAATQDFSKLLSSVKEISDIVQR
Chain of Protein cereblon/Tyrosine-protein kinase ABL1/Breakpoint cluster region protein (Homo sapiens) (P11274 whole entry, looked up): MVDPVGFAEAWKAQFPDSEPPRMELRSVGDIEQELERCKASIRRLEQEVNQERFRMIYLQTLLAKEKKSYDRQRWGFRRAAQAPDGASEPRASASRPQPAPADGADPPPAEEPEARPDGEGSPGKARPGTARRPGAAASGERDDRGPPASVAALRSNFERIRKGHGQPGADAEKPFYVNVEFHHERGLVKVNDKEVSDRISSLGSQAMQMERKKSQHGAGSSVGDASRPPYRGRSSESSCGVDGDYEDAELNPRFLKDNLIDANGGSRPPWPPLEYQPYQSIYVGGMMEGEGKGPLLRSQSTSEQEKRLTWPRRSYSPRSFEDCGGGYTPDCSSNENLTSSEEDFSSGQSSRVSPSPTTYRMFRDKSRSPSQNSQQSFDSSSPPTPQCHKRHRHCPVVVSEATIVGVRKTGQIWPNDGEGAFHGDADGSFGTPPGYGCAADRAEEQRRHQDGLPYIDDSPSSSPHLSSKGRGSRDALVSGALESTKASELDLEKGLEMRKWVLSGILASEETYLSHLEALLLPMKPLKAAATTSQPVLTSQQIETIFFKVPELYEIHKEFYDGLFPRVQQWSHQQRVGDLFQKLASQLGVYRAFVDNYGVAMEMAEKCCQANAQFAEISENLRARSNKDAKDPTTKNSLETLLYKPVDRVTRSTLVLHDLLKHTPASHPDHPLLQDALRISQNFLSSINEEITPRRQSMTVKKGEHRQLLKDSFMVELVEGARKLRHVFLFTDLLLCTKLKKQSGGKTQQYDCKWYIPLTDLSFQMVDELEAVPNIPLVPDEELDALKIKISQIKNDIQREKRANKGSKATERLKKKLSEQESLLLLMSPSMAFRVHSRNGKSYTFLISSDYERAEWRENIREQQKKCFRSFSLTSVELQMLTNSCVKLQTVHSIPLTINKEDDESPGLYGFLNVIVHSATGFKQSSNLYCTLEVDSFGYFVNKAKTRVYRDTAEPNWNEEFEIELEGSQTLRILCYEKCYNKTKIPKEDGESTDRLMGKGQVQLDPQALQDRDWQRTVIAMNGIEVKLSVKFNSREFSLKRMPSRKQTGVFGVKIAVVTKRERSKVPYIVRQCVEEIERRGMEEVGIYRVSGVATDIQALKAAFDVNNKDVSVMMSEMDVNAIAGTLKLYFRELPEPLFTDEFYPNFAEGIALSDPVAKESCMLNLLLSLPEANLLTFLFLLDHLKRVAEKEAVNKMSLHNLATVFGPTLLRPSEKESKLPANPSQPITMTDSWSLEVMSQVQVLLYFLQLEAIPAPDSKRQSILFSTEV
Chain of Protein cereblon/Tyrosine-protein kinase ABL1/Breakpoint cluster region protein (Homo sapiens) (Q96SW2 whole entry, looked up): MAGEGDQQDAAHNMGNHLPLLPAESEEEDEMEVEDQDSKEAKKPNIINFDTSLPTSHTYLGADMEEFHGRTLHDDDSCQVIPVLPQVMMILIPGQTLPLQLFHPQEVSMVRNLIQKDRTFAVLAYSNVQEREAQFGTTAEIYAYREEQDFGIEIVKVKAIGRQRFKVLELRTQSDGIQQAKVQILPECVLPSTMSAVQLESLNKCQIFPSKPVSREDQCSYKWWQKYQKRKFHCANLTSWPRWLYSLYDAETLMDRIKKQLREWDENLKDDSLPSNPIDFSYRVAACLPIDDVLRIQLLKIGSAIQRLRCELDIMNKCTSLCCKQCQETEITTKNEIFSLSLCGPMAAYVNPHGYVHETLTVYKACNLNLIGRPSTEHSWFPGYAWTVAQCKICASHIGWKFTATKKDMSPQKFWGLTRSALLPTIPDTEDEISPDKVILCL

Activity [%] | SMILES
> 60 | Cc1nc(Nc2ncc(C(=O)Nc3c(C)cccc3Cl)s2)cc(N2CCN(CCCCCCOCCOCCOCCCCCC(=O)Nc3cccc4c3C(=O)N(C3CCC(=O)NC3=O)C4=O)CC2)n1 (stereo not given)

Tested on: HEK293
Test: Induction of VHL-mediated SGK3 degradation in HEK293 cells at 10 uM incubated for 48 hrs by immunoblot analysis relative to control
Format: cell-based
Conditions: Homo sapiens

SMILES | Activity [%]
Cc1ccc(F)c(S(=O)(=O)Nc2ccc(-c3nc(OC[C@H]4CN(CCCCCCOCCOCCOCCOCC(=O)N[C@H](C(=O)N5C[C@H](O)C[C@H]5C(=O)NCc5ccc(-c6scnc6C)cc5)C(C)(C)C)CCO4)c4cn[nH]c4n3)cc2)c1 | > 50
COc1ccc(Cl)c(S(=O)(=O)Nc2ccc(-c3nc(OC[C@H]4CN(CCCCCCOCCCCCCOCC(=O)N[C@H](C(=O)N5C[C@H](O)C[C@H]5C(=O)NCc5ccc(-c6scnc6C)cc5)C(C)(C)C)CCO4)c4c(C)n[nH]c4n3)cc2)c1 | > 50
Cc1ccc(F)c(S(=O)(=O)Nc2ccc(-c3nc(OC[C@H]4CN(CCOCCOCC(=O)N[C@H](C(=O)N5C[C@H](O)C[C@H]5C(=O)NCc5ccc(-c6scnc6C)cc5)C(C)(C)C)CCO4)c4cn[nH]c4n3)cc2)c1 | > 50
Cc1ccc(F)c(S(=O)(=O)Nc2ccc(-c3nc(OC[C@H]4CN(CCOCCOCCOCCOCCOCC(=O)N[C@H](C(=O)N5C[C@H](O)C[C@H]5C(=O)NCc5ccc(-c6scnc6C)cc5)C(C)(C)C)CCO4)c4cn[nH]c4n3)cc2)c1 | > 50
COc1ccc(Cl)c(S(=O)(=O)Nc2ccc(-c3nc(OC[C@H]4CN(CCCCCCOCCOCCOCCOCC(=O)N[C@H](C(=O)N5C[C@H](O)C[C@H]5C(=O)NCc5ccc(-c6scnc6C)cc5)C(C)(C)C)CCO4)c4c(C)n[nH]c4n3)cc2)c1 | > 50
Cc1ccc(F)c(S(=O)(=O)Nc2ccc(-c3nc(OC[C@H]4CN(CCCCCCOCCCCCCOCC(=O)N[C@H](C(=O)N5C[C@H](O)C[C@H]5C(=O)NCc5ccc(-c6scnc6C)cc5)C(C)(C)C)CCO4)c4cn[nH]c4n3)cc2)c1 | > 50
Cc1ccc(F)c(S(=O)(=O)Nc2ccc(-c3nc(OC[C@H]4CN(CCOCCOCCOCC(=O)N[C@H](C(=O)N5C[C@H](O)C[C@H]5C(=O)NCc5ccc(-c6scnc6C)cc5)C(C)(C)C)CCO4)c4cn[nH]c4n3)cc2)c1 | > 50
Cc1ccc(F)c(S(=O)(=O)Nc2ccc(-c3nc(OC[C@H]4CN(CCCCCCOCCOCCOCC(=O)N[C@H](C(=O)N5C[C@H](O)C[C@H]5C(=O)NCc5ccc(-c6scnc6C)cc5)C(C)(C)C)CCO4)c4cn[nH]c4n3)cc2)c1 | > 50
Cc1ccc(F)c(S(=O)(=O)Nc2ccc(-c3nc(OC[C@H]4CN(CCOCCOCCOCCOCC(=O)N[C@H](C(=O)N5C[C@H](O)C[C@H]5C(=O)NCc5ccc(-c6scnc6C)cc5)C(C)(C)C)CCO4)c4cn[nH]c4n3)cc2)c1 | > 50
